Values of other authors as cited in patent US20040128703A1, “Methods and compositions for the generation of humanized mice” (priority 2002, published 2004).
Read-outs that look alike come from different tables or passages of the source.

Key:
human PXR [1] = target: T1, human PXR (Homo sapiens, UniProt O75469); conditions: transgenic mice, native PXR partially deleted, human PXR gene targeted to the liver
T1 sequence (O75469 1-434): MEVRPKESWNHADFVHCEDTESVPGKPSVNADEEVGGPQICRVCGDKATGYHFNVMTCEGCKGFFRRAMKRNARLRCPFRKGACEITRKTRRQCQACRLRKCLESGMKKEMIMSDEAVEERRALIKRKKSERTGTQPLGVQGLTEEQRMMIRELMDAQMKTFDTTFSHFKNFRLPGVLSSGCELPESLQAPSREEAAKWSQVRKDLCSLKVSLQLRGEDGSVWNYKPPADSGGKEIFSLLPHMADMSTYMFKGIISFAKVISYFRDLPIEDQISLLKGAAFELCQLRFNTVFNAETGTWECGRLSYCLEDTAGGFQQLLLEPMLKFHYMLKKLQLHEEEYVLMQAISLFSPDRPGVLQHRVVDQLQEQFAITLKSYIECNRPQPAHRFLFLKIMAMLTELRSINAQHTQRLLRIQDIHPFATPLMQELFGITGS

[2] = tested on: CYP3A expression in rat hepatocytes
human PXR [3] = target: T1, human PXR; conditions: human PXR transfected into rat hepatocytes

## O=C(O)c1cn(C2CC2)c2cc(N3CCNCC3)c(F)cc2c1=O [Ciprofloxacin]
gram-negative bacilli; 1994, US
  susceptibility of bacteria: 86%
gram-negative bacilli; 2000, US
  susceptibility of bacteria: 76%

## CCOP(=O)(OCC)C(=Cc1cc(C(C)(C)C)c(O)c(C(C)(C)C)c1)P(=O)(OCC)OCC [SR12813]
P-glycoprotein
  P-glycoprotein induction: induced

## CC(=O)O[C@H]1C(=O)[C@@]2(C)[C@H]([C@H](OC(=O)c3ccccc3)[C@]3(O)C[C@H](OC(=O)[C@H](O)[C@@H](NC(=O)c4ccccc4)c4ccccc4)C(C)=C1C3(C)C)[C@]1(OC(C)=O)CO[C@@H]1C[C@@H]2O [Taxol]
P-glycoprotein
  P-glycoprotein induction: induced

## Clc1ccccc1C(c1ccccc1)(c1ccccc1)n1ccnc1 [clotrimazole]
Human PXR [1]
  CYP3A expression in the mouse: induced CYP3A expression
CYP3A4 expression
  CYP3A4 expression in human liver: stimulate CYP3A4 expression
[2]
  effect on CYP3A expression in rat hepatocytes: no effect
Human PXR [3]
  CYP3A expression in rat hepatocytes transfected with human PXR: able to stimulate CYP3A expression

## CCC1(c2ccccc2)C(=O)NC(=O)NC1=O [phenobarbital]
CYP3A4 expression
  CYP3A4 expression in human liver: stimulate CYP3A4 expression
[2]
  effect on CYP3A expression in rat hepatocytes: no effect
Human PXR [3]
  CYP3A expression in rat hepatocytes transfected with human PXR: able to stimulate CYP3A expression
